Results: the supplement of paper PMC11451515

System: NOMO1
Assay: cell viability relative to DMSO control; higher = less cytotoxic
Conditions: 48 h
Outline: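 NOMO1, SEM and P12-Ichikawa leukemia cells spent at least four passages adapting to each medium before use. They were seeded at 500 cells/well (NOMO1, SEM) or 1000 cells/well (P12-Ichikawa) in 5 μl in 1536-well plates and pin-dosed with library compounds in DMSO at 11 threefold steps from 47 μM down to 0.79 nM. After 48 h at 37°C, CellTiter-Glo One luminescence was read. Viability is reported as a percentage of the DMSO wells on each plate, with cell-free wells as background.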

[1] = HPLM + 10% dialyzed FBS, 0.000781 µM
[2] = HPLM + 10% dialyzed FBS, 0.00234 µM
[3] = HPLM + 10% dialyzed FBS, 0.00702 µM
[4] = HPLM + 10% dialyzed FBS, 0.0211 µM
[5] = HPLM + 10% dialyzed FBS, 0.0632 µM
[6] = HPLM + 10% dialyzed FBS, 0.19 µM
[7] = HPLM + 10% dialyzed FBS, 0.569 µM
[8] = HPLM + 10% dialyzed FBS, 1.71 µM
[9] = HPLM + 10% dialyzed FBS, 5.12 µM
[10] = HPLM + 10% dialyzed FBS, 15.4 µM
[11] = HPLM + 10% dialyzed FBS, 46.1 µM
[12] = RPMI 5 mM glucose + 10% FBS, 0.000781 µM
[13] = RPMI 5 mM glucose + 10% FBS, 0.00234 µM
[14] = RPMI 5 mM glucose + 10% FBS, 0.00702 µM
[15] = RPMI 5 mM glucose + 10% FBS, 0.0211 µM
[16] = RPMI 5 mM glucose + 10% FBS, 0.0632 µM
[17] = RPMI 5 mM glucose + 10% FBS, 0.19 µM
[18] = RPMI 5 mM glucose + 10% FBS, 0.569 µM
[19] = RPMI 5 mM glucose + 10% FBS, 1.71 µM
[20] = RPMI 5 mM glucose + 10% FBS, 5.12 µM
[21] = RPMI 5 mM glucose + 10% FBS, 15.4 µM
[22] = RPMI 5 mM glucose + 10% FBS, 46.1 µM
[23] = RPMI 5 mM glucose + 10% dialyzed FBS, 0.000781 µM
[24] = RPMI 5 mM glucose + 10% dialyzed FBS, 0.00234 µM
[25] = RPMI 5 mM glucose + 10% dialyzed FBS, 0.00702 µM
[26] = RPMI 5 mM glucose + 10% dialyzed FBS, 0.0211 µM
[27] = RPMI 5 mM glucose + 10% dialyzed FBS, 0.0632 µM
[28] = RPMI 5 mM glucose + 10% dialyzed FBS, 0.19 µM
[29] = RPMI 5 mM glucose + 10% dialyzed FBS, 0.569 µM
[30] = RPMI 5 mM glucose + 10% dialyzed FBS, 1.71 µM
[31] = RPMI 5 mM glucose + 10% dialyzed FBS, 5.12 µM
[32] = RPMI 5 mM glucose + 10% dialyzed FBS, 15.4 µM
[33] = RPMI 5 mM glucose + 10% dialyzed FBS, 46.1 µM

SMILES | cell viability [1] [%] | cell viability [2] [%] | cell viability [3] [%] | cell viability [4] [%] | cell viability [5] [%] | cell viability [6] [%] | cell viability [7] [%] | cell viability [8] [%] | cell viability [9] [%] | cell viability [10] [%] | cell viability [11] [%] | cell viability [12] [%] | cell viability [13] [%] | cell viability [14] [%] | cell viability [15] [%] | cell viability [16] [%] | cell viability [17] [%] | cell viability [18] [%] | cell viability [19] [%] | cell viability [20] [%] | cell viability [21] [%] | cell viability [22] [%] | cell viability [23] [%] | cell viability [24] [%] | cell viability [25] [%] | cell viability [26] [%] | cell viability [27] [%] | cell viability [28] [%] | cell viability [29] [%] | cell viability [30] [%] | cell viability [31] [%] | cell viability [32] [%] | cell viability [33] [%]
CNC[C@H](O)c1ccc(O)c(O)c1 | 112 | 95.6 | 104 | 104 | 96.9 | 102 | 88.1 | 89.2 | 86.3 | 77.1 | 73 | 84.7 | 89.8 | 83 | 87.6 | 84.6 | 80.5 | 90.7 | 89.9 | 80 | 76.7 | 77.9 | 84.2 | 90.4 | 93.8 | 85.6 | 95.9 | 91.3 | 84.2 | 75.5 | 84.6 | 76.5 | 77.7
CC(N)C12CC3CC(CC(C3)C1)C2 (configuration not stated) | 99.4 | 120 | 116 | 113 | 117 | 104 | 126 | 109 | 104 | 85.1 | 80.2 | 104 | 118 | 122 | 111 | 108 | 116 | 126 | 112 | 112 | 53.4 | 49.2 |  |  |  |  |  |  |  |  |  |  | 
CN1C[C@H]2c3ccccc3Oc3ccc(Cl)cc3[C@@H]2C1 | 78.1 | 106 | 93.5 | 92.7 | 85.6 | 90 | 106 | 96 | 90.5 | 93.8 | 82.1 | 75.8 | 93.6 | 88.7 | 90.4 | 91.3 | 83.3 | 80.7 | 88.2 | 80.4 | 87.3 | 85.6 | 85.8 | 86.1 | 85.4 | 94.2 | 87.4 | 95.2 | 85.2 | 83.9 | 93 | 82.1 | 85.3
COc1cc2c(cc1OC)CC(=O)N(CCCN(C)C[C@H]1Cc3cc(OC)c(OC)cc31)CC2.Cl | 126 | 115 | 107 | 122 | 97.1 | 111 | 122 | 112 | 114 | 115 | 109 | 104 | 105 | 99.2 | 106 | 100 | 102 | 102 | 99.6 | 105 | 97.5 | 95.3 | 111 | 114 | 130 | 115 | 113 | 106 | 92.6 | 110 | 110 | 93 | 100
Cc1cccc(Nc2nc(-c3ccncc3)cs2)c1 | 96.3 | 138 | 121 | 142 | 137 | 140 | 111 | 145 | 142 | 136 | 134 |  |  |  |  |  |  |  |  |  |  |  | 122 | 121 | 128 | 123 | 125 | 135 | 134 | 129 | 128 | 134 | 107
CC(C)CC(=O)N[C@H](C(=O)N[C@H](C(=O)N[C@@H](CC(C)C)[C@@H](O)CC(=O)N[C@@H](C)C(=O)N[C@@H](CC(C)C)[C@@H](O)CC(=O)O)C(C)C)C(C)C | 107 | 96.3 | 120 | 106 | 112 | 117 | 118 | 108 | 119 | 124 | 119 | 105 | 119 | 94.4 | 107 | 102 | 114 | 99.8 | 108 | 93.1 | 97.8 | 90.3 | 91.6 | 98.4 | 111 | 115 | 104 | 110 | 112 | 113 | 116 | 107 | 105
C[C@@H]\1CC(=O)N\N=C1C2=CC=C(NN=C(C#N)C#N)C=C2 | 90.8 | 89.5 | 107 | 95.5 | 99.9 | 90.2 | 102 | 87.6 | 88.5 | 86.8 | 4.87 | 93.9 | 87.6 | 92.6 | 90.6 | 87.9 | 96.7 | 85.7 | 97.5 | 89.2 | 80 | 7.6 | 85.3 | 94.7 | 93.4 | 90.7 | 95.3 | 92.6 | 96.3 | 89 | 87.1 | 83.2 | 9.26
CNC(=O)c1ccc(N2C(=S)N(c3ccc(C#N)c(C(F)(F)F)c3)C(=O)C23CCC3)cc1F | 90.5 | 90.2 | 91.7 | 33.3 | 95.1 | 105 | 103 | 107 | 92.6 | 93.2 | 111 | 80.5 | 88.3 | 83.6 | 18.9 | 98.9 | 88 | 92 | 86.6 | 96 | 88.4 | 99.1 | 84.9 | 93.1 | 108 | 34.6 | 100 | 90.6 | 95.2 | 93.1 | 95.6 | 91.7 | 103
